A word on the IC50: it is the midpoint of a concentration-inhibition curve. Higher therefore signals weaker potency. The term Papp denotes the rate of passage across a membrane or cell layer, normalised by area and donor concentration. As usually defined, the melting point is the temperature of the solid-liquid transition.

This note sets out measurements from patent US9249097B2, “3-aminocarbazole compound, pharmaceutical composition containing it and preparation method therefor” (AZIENDE CHIM. RIUN. ANG. FRANC. A.C.R.A.F. S.p.A., priority 2008, dated 2016).

Where only a bound is given, the exact number is not on record here.

For series [1], the system named is production of PGE2. The experiment in a line: Inhibition of PGE2 production in IL-1β-stimulated A549 cells (EIA). It is filed as cell-based. The note with it: Homo sapiens, IL-1β 1 ng/ml, 22 hours. From the text:
(§1) This test allows evaluation of the inhibitory capacity on the production of the PGE2 and the selectivity relative to the production of the PGF2α.
(§2) The cell line A549, human pulmonary adenocarcinoma, was used, which is particularly sensitive to stimulation with pro-inflammatory cytokines, for instance IL-1β, and, in response to this stimulation, is particularly active in the production and release of two prostanoids: PGE2 and PGF2α (Thoren S. Jakobsson P-J, 2000).
(§3) The cells were stimulated with IL-1β (1 ng/ml) and simultaneously treated with the test compound for 22 hours in an appropriate culture medium (DMEM—Dulbecco's Modified Eagle's Medium) supplemented with 5% foetal calf serum and L-glutamine (4 mM final) in an incubator at 37° C. and at a CO2 concentration of 5%.
(§4) After the incubation, the amount of PGE2 and PGF2α produced and released into the supernatant were assayed using an EIA kit (produced and sold by Cayman Chemicals, Ann Arbor, Mich., USA).
(§5) The comparative compound used was indomethacin at a concentration of 10 nM (Sigma-Aldrich), a non-steroidal anti-inflammatory drug that inhibits in equal measure both PGE2 and PGF2α.
(§6) The results, expressed as the IC50 values, i.e. as the concentration of compound that inhibits 50% of the production of PGE2 and of PGF2α relative to the cells that have been stimulated, but not treated with the same compound, are given in Table 2. The inactivity or the reduced activity of the compound on the biosynthesis of PGF2α is an indication of selectivity towards the production of PGE2 and thus of selective inhibition of mPGES-1.

The test system of series [2] is production of PGF2α. The series can be described thus: Inhibition of PGF2α production in IL-1β-stimulated A549 cells (EIA). It is filed as cell-based. The note with it: Homo sapiens, IL-1β 1 ng/ml, 22 hours.
Source text: as §1, §2, §3, §4, §5, §6

The nature of series [3]: Metabolic stability in rat hepatic microsomes. The note with it: 1 μM. The procedure:
(§7) This test allows evaluation of the metabolic stability of the compounds of the invention and of the comparative compounds in rats and in man.
(§8) The compounds to be analysed, at a final concentration of 0 and 1 μM, were placed in a suspension containing the pool of microsomes at a final concentration of 0.5 mg/mL in a final volume of 200 μL, in 96-well plates. The test was standardized with phosphate buffer (75 mM, pH 7.4) and with the NADPH regenerating system (MgCl2: 3.3 mM; G6P: 3.3 mM; G6PD: 0.4 U/mL; NADP+: 1.3 mM). […] The samples were incubated at 37° C. in a humidified incubator. At time 0 and after 60 minutes, 100 μL of acetonitrile containing the internal standard (0.2 μM of metoprolol and 0.4 μM of diclofenac) were added to stop the reaction.
(§9) The samples were centrifuged before analysis. The HPLC/MS/MS analysis was performed using an electrospray ion source in positive ionization and SRM (Single Reaction Mode). The chromatographic conditions entail the use of an XDB-C18 column (2.1×50 mm, Agilent) and a gradient from 5% to 91% of acetonitrile in water containing 0.1% formic acid (total runtime equal to 6 minutes); the flow rate was 0.5 ml/minute.
(§10) The areas of the peaks for the test compounds were integrated and the results expressed as the analyte area/internal standard (PAR) area ratio. For each time, two samples were analysed and the mean value calculated. The percentage of the value of remaining compound was calculated as: % unmetabolized compound=100*(mean PARTfinal/mean PART0).

Series [4] in a line: Metabolic stability in human hepatic microsomes. The note with it: 1 μM. On the procedure: as §7, §8, §9, §10
Series [5] is described as follows: in vitro. The note with it: human, Caco-2, pH 7.4. On the procedure:
This test allows evaluation of the amount absorbed by the intestinal barrier of the compounds of the invention and of the comparative compounds using the Caco-2 cell line as an in vitro model of intestinal barrier. The permeability test on Caco-2 cells represents an in vitro system approved for predicting and estimating the in vivo intestinal absorption of a drug. When the Caco-2 cells are cultured on a porous filter for about 21 days, they have the capacity to differentiate into enterocytes.
The compounds undergoing the test were diluted from a 10 mM stock solution in HBSS to a final concentration of 10 μM. The system consisted of a confluent cellular monolayer in culture for 21-28 days.
Each compound was tested in triplicate, bidirectionally, at pH 7.4, from the apical to the basolateral compartment (A→B) and from the basolateral to the apical compartment (B→A).
The samples collected at the given time were analysed by HPLC-MS/MS, using an electrospray ion source in positive ionization and SRM (Single Reaction Mode). The chromatographic conditions entailed the use of an XDB-C18 column (2.1×50 mm, Agilent) with a gradient from 5% to 91% of acetonitrile in water containing 0.1% formic acid (total runtime equal to 6.5 minutes) and a flow rate of 0.5 ml/minute. Metoprolol was used as the internal standard.
The concentration data were used to calculate the apparent permeability values (Papp), and the mean and standard deviation of the Papp were calculated.
The flux ratio was calculated as Papp(B→A)/Papp(A→B). The recovery percentage was calculated as: (amount in the receiving compartment+amount in the donor compartment)/nominal amount
The area of the peaks of the test compounds were integrated and the results were expressed as the analyte area/internal standard area ratio and corrected for the dilution factor used during the preparation of the sample. The apparent permeability coefficients were calculated using the following equation: […]
in which: • VA volume in the receiving well (0.25 mL for the test from A→B, 0.075 mL for the test from B→A) • Area area of the membrane surface (0.11 cm^2) • Time total transport time (3600 seconds)

Setting [6] is: Sprague-Dawley, rat, microsomes, 1 h, pH 7.4.
Setting [7] is: microsomes 0.5 mg/mL, 60 minutes, 37° C.

As for `CC(=O)Cn1c2ccccc2c2cc(NC(=O)c3ccccc3C(F)(F)F)ccc21` [Compound 4, N-[9-(2-oxopropyl)-9H-carbazol-3-yl]-2-(trifluoromethyl)benzamide], the melting point fell in the range of 223 to 226 °C. For the same molecule, the IC50 in series [1] was 5.6 µM. In series [2], this molecule yielded an IC50 of over 100 µM. The “% unmetabolized compound, Rat” value in series [3] (setting [6]) was found to be 58%. Moreover, the “% unmetabolized compound, Man” value in series [4] (human, microsomes, 1 h, pH 7.4) is on record as 7%. For the same molecule, the apparent permeability (Papp) at 3600 seconds, 10 μM in series [5] was over 200 nm/s.
The molecule `O=C(Nc1ccc2c(c1)c1ccccc1n2CCO)c1ccccc1Cl` [Compound 5, 2-chloro-N-[9-(2-hydroxyethyl)-9H-carbazol-3-yl]benzamide] returned a melting point of 168 to 169 °C. Moreover, in series [3] (setting [6]), the “% unmetabolized compound, Rat” value was 63%. For the same molecule, the “% unmetabolized compound, Man” value in series [4] (human, microsomes, 1 h, pH 7.4) came out at 76%. In series [5], this molecule had a Papp at 3600 seconds, 10 μM of over 200 nm/s.
In turn, `CC(C)(O)CCn1c2ccccc2c2cc(NC(=O)c3ccccc3Cl)ccc21` [Compound 6, 2-chloro-N-[9-(3-hydroxy-3-methylbutyl)-9H-carbazol-3-yl]benzamide] showed a melting point of 120 to 124 °C. Also, half-maximal inhibition in series [1] (IC50) required 0.6 µM. In addition, the half-maximal inhibitory concentration (IC50) in series [2] is over 100 µM. The “% unmetabolized compound, Rat” value in series [3] (setting [6]) came out at 74%. Moreover, the “% unmetabolized compound, Man” value in series [4] (human, microsomes, 1 h, pH 7.4) amounted to 65%. The molecule also showed a Papp at 3600 seconds, 10 μM in series [5] of over 200 nm/s.
Regarding `C[C@H]1O[C@@H](O[C@H]2[C@@H](O)C[C@H](O[C@H]3[C@@H](O)C[C@H](O[C@H]4CC[C@@]5(C)[C@H](CC[C@@H]6[C@@H]5C[C@@H](O)[C@]5(C)[C@@H](C7=CC(=O)OC7)CC[C@]65O)C4)O[C@@H]3C)O[C@@H]2C)C[C@H](O)[C@@H]1O` [Digoxin, digoxin, reference compound], the Papp at 3600 seconds, 10 μM in series [5] is under 20 nm/s.
`COc1ccc2c(c1)c(CC(=O)O)c(C)n2C(=O)c1ccc(Cl)cc1` [Indomethacin, indomethacin, reference compound]: the results for the IC50 in series [1] and in series [2] were 0.005 µM and 0.003 µM, respectively.
Regarding `CC(C)NCC(O)COc1cccc2ccccc12` (stereo not drawn) [Propranolol, propranolol, reference compound], in series [5], the Papp at 3600 seconds, 10 μM was over 200 nm/s.
Consider `C[C@]12CC[C@H]3[C@@H](CCC4=CC(=O)CC[C@@]43C)[C@@H]1CC[C@@H]2O` [Testosterone, testosterone, reference compound], for which, in series [3] (setting [7]), the “% unmetabolized compound, Rat” value was found to be 0%. The “% unmetabolized compound, Man” value in series [4] (setting [7]) is 27%.
For the molecule `CC(=O)CC(c1ccccc1)c1c(O)c2ccccc2oc1=O` (stereo not drawn) [Warfarin, warfarin, reference compound], the “% unmetabolized compound, Rat” value in series [3] (setting [6]) is 97%. The “% unmetabolized compound, Man” value in series [4] (human, microsomes, 1 h, pH 7.4) amounted to 103%.
